Assay results published in patent publication US12648565B2, “Post-emergence herbicide” (Belvedere Foliar LLC, priority 2017, dated 2026).

Legend:
[1] = system: Pasture Blend 1, Pasture blend 2, Cineraria meritima (Dusty miller) (plants 21, 22, 10); assay: Trial 14: greenhouse foliar spray trial, visual toxicity scoring; format: in vivo, pasture seed blend
Text: (§1) The majority of greenhouse trials conducted to date have been of one basic design: • 1. Samples of different species of flowering plant and grass are exposed to different formulations of the herbicide in accordance with some embodiments, prepared in a range of concentrations, in combination with potentially suitable adjuvants, and applied as an aquatic spray. Experimental plants are purchased either from a local nursery, grown from ornamental and weed seed packs, or grown from seeds of a custom blend prepared specifically for this project and listed in Table 4B. The experimental variable in a typical test is the molar mass concentration of the nutrient salt being examined. Other factors including pH, nitrogen source, and the amount and composition of surfactant or penetrant are constants within a trial except when one of these factors is itself the variable of interest in the experiment. Experiments are controlled unless irrelevant for a particular test. • 2. Standard techniques to reduce experimental error are employed including use of controls; standard spray application pressures; standardized growing conditions, growing medium, containers, and source irrigation water; and preparation and shipping of samples for laboratory analysis according to required standard laboratory protocols. • 3. Plants are sprayed with the experimental formulation, always in late afternoon (greenhouse tests), or in early morning (field tests), are observed over as many as several weeks, and their visible state of decline scored by the same examiner on a 9 points system relying on visual effects of toxicity. (Table 5.)
(§2) Scores of half-value are also used: 0, 0.5, 1.0, 1.5, 2.0, 2.5, etc. • 4. The estimated successful herbicidal effectiveness of a formulation was determined from a combination of averaged and cumulative scores of 4.0 to 5.0 observed approximately 14 days or longer after application: “All leaves and flowers if present desiccated, browned, wilted, and stems or blades lodged; no green tissue visible; no regrowth from roots visible.”
In Trial 14, the herbicides comprised K-acetate; molarity 2.0, 1.5, 1.0; pH approx. 5.3 by glacial acetic acid, and a proprietary adjuvant mix. Ref. Lab-1, p. 113. Test plants (ref. Tables 4A and 4B): P1, P2, P10.

[2] = system: Pasture Blend 2, Gazania rigens, Fragaria x ananassa (Strawberry), Nemophila menziesii discoidalis (plants 22, 15, 13, 19); assay: Trial 22: greenhouse foliar spray trial, visual toxicity scoring; format: in vivo
Text: as §1, §2
In Trial 22, the herbicides comprised K-acetate; molarity range 1.0-2.0; pH approx. 5.0 with succinic acid; proprietary adjuvant mix.

[3] = system: Pasture Blend 2, Gazania rigens, Fragraria x ananassa (Strawberry), Nemophila menziesii discoidalis (plants 22, 15, 13, 19); assay: Trial 25: greenhouse foliar spray trial at four acidities, visual toxicity scoring; format: in vivo; settings: molarity 1.5, test conclusion on Day 5
Text: as §1, with “Standard techniques to reduce experimental error are employed including use of controls; standard spray application pressures; standardized growing conditions, growing medium, containers, and source irrigation water; and preparation and shipping of samples for laboratory analysis according to required standard laboratory protocols. • 3.” left out, “(Table 5.)” left out

[4] = system: Pasture Blend 2, Allium ampeloprasum (Leek), Brassica oleracea (Kale), Lantana camara, Pisum sativum var. saccharatum (Snow pea) (P2, 1, 5, 16, 23); assay: Trial 31A: greenhouse foliar spray trial, adjuvant mix A, visual toxicity scoring; format: in vivo; settings: 1.0M; by Day 20
Text: (§3) The plants were numbered 22, 1, 5, 16, and 23, corresponding to Pasture blend 2, Brassica oleracea (var. Kale “Dinosaur”), Lantana camara (White Lantana), and Pisum sativum var. saccharatum (Snow pea) (Refer to Tables 4A and 4B for plant species identification). The only difference between Trials 31A and 31B was the composition of the proprietary adjuvant mix employed for each trial. The adjuvants for the “A” series were urea and […] silicone surfactant (Loveland Products). The adjuvants for the “B” series were urea and LI700 penetrant (Loveland Products). Solutions 1 A & B (S-1A, S-1B) correspond to a 2.0 molar solution of potassium acetate, pH 5.01 achieved with citric acid. S-2 is a similar solution of 1.5 molarity, pH 5.00. S-3 is a similar solution of 1.0 molarity, pH 4.97. (Refer to Tables 6A and 6B for trial solutions, details and results).
(§4) The majority of greenhouse trials conducted to date have been of one basic design: • 1. […] Plants are sprayed with the experimental formulation, always in late afternoon (greenhouse tests), or in early morning (field tests), are observed over as many as several weeks, and their visible state of decline scored by the same examiner on a 9 points system relying on visual effects of toxicity. […]

[5] = system: Pasture Blend 2, Allium ampeloprasum (Leek), Brassica oleracea (Kale), Lantana camara, Pisum sativum var. saccharatum (Snow pea) (P2, 1, 5, 16, 23); assay: Trial 31B: greenhouse foliar spray trial, adjuvant mix B, visual toxicity scoring; format: in vivo; settings: 2.0 M; day 4
Text: as §3, §4

[6] = system: Brassica oleracea (Kale), Dichondra repens, Fragaria x ananassa (Strawberry), Pasture Blend 2, Rosemarina officinalis (Rosemary) (5, 11b, 13, 22, 23b); assay: Trial 47: greenhouse foliar spray trial, visual toxicity scoring; format: in vivo
Text: as §1, §2
In Trial 47, the herbicides comprised K-acetate; molarity range from 1.0-2.5; pH 5.03-5.05 with glacial acetic acid; proprietary adjuvant mix. Ref. Lab-2, p. 42. Test plants (ref Tables 4A and 4B):5, 11b, 13, 22, 23b
S-1 corresponds to the highest concentration of active nutrient tested, S-4 corresponds to the lowest concentration of nutrient tested, and […] represent intermediate levels. The data are graphically presented below in FIG. 8.

mature field weeds = assay: Trial 50: field test, visual toxicity scoring; format: in vivo
Text: as §1, §2
In Trial 50, the herbicides comprised K-acetate; molarity range from 1.5, 2.0 and 2.5; pH 5.0 with citric acid; proprietary adjuvant mix. Ref. Lab-2, p. […] Test plants were mature field weeds.
S-1 corresponds to the highest concentration of active nutrient tested, S-3 corresponds to the lowest concentration of nutrient tested, and S-2 represent an intermediate level. The data are graphically presented below in FIG. 11.

[7] = system: all weeds: Common purslane, Barnyard grass, Feather fingergrass; settings: Day 4
Text: as §1, with “Standard techniques to reduce experimental error are employed including use of controls; standard spray application pressures; standardized growing conditions, growing medium, containers, and source irrigation water; and preparation and shipping of samples for laboratory analysis according to required standard laboratory protocols. • 3.” left out, “(Table 5.)” left out

[8] = system: Viola x wittockiana (Viola), Antirrhinum majus (Snapdragon), Cineraria meritima (Dusty miller), Cymbalaria aequitriloba (Cymbalaria); assay: Trial 56: greenhouse foliar spray trial, visual toxicity scoring; format: in vivo; settings: for phytotoxic control (in words): 1.5 molarity
Text: as §1, §2

CC(=O)[O-].[K+] [K-acetate, Potassium acetate]
average toxicity score ([1]; 1.0M, Day 7 (so in the source)): 4.3 | average toxicity score ([1]; 1.0M, Day 11): 4.0 | average toxicity score ([1]; 2.0M, Day 1): 4.0 | average toxicity score ([1]; 2.0M, Day 11): 4.7 | average toxicity score ([1]; […], Day 1): 4 | average toxicity score ([1]; […], Day 11): 4.8 | phytotoxic results (in words) ([2]; 1.0M, Days 3-7): strong phytotoxic results | average toxicity score ([2]; 2.0M, Day 5): 4.3 | average toxicity score ([2]; 2.0M, Day 7): 4.4 | average toxicity score ([2]; […], Day 5): 4.1 | average toxicity score ([2]; […], Day 7): 4.1 | phytotoxic effect (in words) ([3]; pH 4.3): severe-to-fatal | phytotoxic effect (in words) ([3]; pH 5.0): severe-to-fatal | average toxicity score [4]: 4.4 | toxicity level (in words) [5]: severe-to-fatal | average toxicity score ([6]; 1.0M, second value listed (days not given)): 4.4 | average toxicity score ([6]; 1.0M, third value listed (days not given)): 4.8 | average toxicity score ([6]; 2.5M, Day 5): 4.5 | average toxicity score ([6]; 2.5M, Day 9): 4.8 | average toxicity score ([6]; 2.5M, Day 14): 4.9 | average toxicity score ([6]; […] (so in the source), Day 5): 4.0 | average toxicity score ([6]; […] (so in the source), Day 9): 4.8 | average toxicity score ([6]; […] (so in the source), Day 14): 5.0 | average toxicity score (mature field weeds; 2.0M, Day 3): 3.6 | average toxicity score (mature field weeds; 2.0M, Day 10): 3.6 | average toxicity score (mature field weeds; 2.5M, Day 3): 2.8 | average toxicity score (mature field weeds; 2.5M, Day 10): 2.8 | phytotoxicity (in words) (mature field weeds; 2.5 molarity): less phytotoxicity than lower molarities | phytotoxic control (in words) [7]: strong to excellent phytotoxic control | appearance of treated plants ([8]; 1.5 molar, last observed on Day 16): appeared dead with no regrowth | phytotoxic control (in words) ([8]; Day 3): strong phytotoxic control | phytotoxic control (in words) ([8]; Day 4 through Day 15): excellent phytotoxic control
